# Results as given in patent publication US6410515B1, “Peptide, a method for its preparation and a pharmaceutical composition containing the peptide” (Immunotech Developments Inc., priority 1995, dated 2002).
# Marks after values point to notes of the source that are not given here.
# Columns and labels:
# [1] = test system: Intact bone marrow cells (hemopoietic stem cells); experiment: Spleen colony formation after in vitro treatment of intact bone marrow cells; assay type: cell-based, mice; settings: for Colony count: Table 4, control 9,0 ± 0,6
# Experimental: The effect of peptides of the present invention on a population of hemopoietic progenitors was studied by testing for colony formation by hemopoietic stem cells in spleens of irradiated mice.
# Intact bone marrow cells were incubated at 37° C. for 1 hour with different concentrations of the peptide ranging from […]/ml. The suspension was injected to lethally irradiated recipient mice. After 8 days the animals were killed and spleen colonies were counted.
# The treatment was carried out as described above in Example 4(a).
# [2] = test system: hemopoietic progenitor cells (CFU-S); experiment: CFU-S content in bone marrow of mice irradiated with 4 Gy; assay type: in vivo; settings: day 8, control 401 ± 48
# Experimental: The effect of H-A-D-Trp-Y, where A is D-Glu or D-iGlu and Y is OH or a substituted amide, on protection and reconstitution of the population of hemopoietic progenitor cells in cytopenias of different origin was studied.
# Ionising radiation was used to deplete bone marrow. Donor mice were irradiated at a dose of 4 Gy. For each of the two peptides, 10 μg/kg was injected intraperitoneally 1 hour, 1 day or 2 days before the irradiation (groups of 12 mice each). Bone marrow was taken from femoral bones 8 days after the irradiation. Eight days generally marks the beginning of an exponential reconstitution of both the total number of cells and the population of hemopoietic progenitors in the bone marrow, which were depleted as a result of irradiation.
# On the 8th day a sharp statistically significant increase was recorded in the hemopoietic progenitor cells count in the bone marrow of the mice irradiated in the dose of 4 Gy who had received the peptide 2 days before the irradiation.
# [3] = test system: caryocytes in femoral marrow; experiment: Reconstitution of caryocyte numbers in femoral marrow after 4 Gy; assay type: in vivo, mice; settings: 10 μg/kg IP 2 days before 4 Gy
# Experimental: The reconstitution of caryocyte numbers and that of hemopoietic progenitors was studied in femoral marrow after irradiation in the dose of 4 Gy and the peptide injection. The test was performed in 12 groups of mice, 6 animals each, and lasted 14 days. Intraperitoneal injections of the peptide in a dose of 10 μg/kg were made 1 day and 2 days before the irradiation.
# (CBA×C57B1)F1 mice = experiment: Chronic graft versus host reaction (GVHR); assay type: in vivo; settings: for Mouse weight: iDD 10 μg/kg/injection
# Experimental: The effect of the peptide on a chronic “graft versus host reaction ” (GVHR) was studied, using the mode l described by Bundic et al. (Exp. Immunol. 1995, 99, p.467). Chronic GVHR was induced in hybrid non-irradiated animals by injecting them twice with large amounts (100 mln) of spleen cells of one of the parents.
# Recipients were (CBA×C57B1)F1 mice, and donors of spleen cells were mice of the strain C57B1. The preparation iDD was administered in the same dose (10 μg/kg/injection) as in the tests on transplantation of allogenic bone marrow. Th e five-day treatment course began 24 hours after the first injection of spleen cells and lasted three weeks. Control group mice received Medium 199 in the same amount and at the same time as test mice received the peptide. Each group consisted of 15 animals.
# Indicators of the degree of GVHR development were animal weight and splenomegaly (as measured by the increase in recipient's spleen weight on day 21). The effectiveness of the preparation was assessed by splenomegaly suppression expressed in % to control (splenomegaly in the control group was taken for […]). The interval between the first and the second injections of spleen cells was 7 days.
# On day 21, a sharp increase in weight was recorded in 70% of control mice and 55% of test mice.
# [4] = test system: lethally irradiated recipient mice; experiment: State of hemopoiesis after transplantation of allogenic bone marrow; assay type: in vivo; settings: for Caryocytes in blood: control 1,7 + 0,3; for Lymphocytes, %: control 3
# Experimental: In a series of experiments, bone marrow cells (6 million) of one of the parents were transplanted to lethally irradiated recipient mice which were hybrids of the first generation. […] Generally, weight loss is observed and there is a small percent of deaths during the 42-day study.
# A day after the bone marrow transplantation, test recipients began to receive therapy. Three schemes of therapy were used: (1) iDD, 10 μg/kg, ip, for 5 days running, with 2-day intervals, for 6 weeks (K+iDD); (2) before transplantation, bone marrow transplants were treated with iDD in vitro for 1 hour at 37° C., 0.2 jig per 2 x 10^6 cells, without […] treatment with the preparation (iDD); and (3) bone marrow was pretreated in vitro as described in scheme 2, followed by iDD therapy as in scheme 1 (iDD+iDD). Control subjects were mice that were transplanted with the bone marrow without any further therapy. These animals received ip injections of the solvent according to the same schedule.
# [5] = test system: mixed lymphocyte culture (MLC); experiment: Mixed lymphocyte culture (MLC) proliferation; assay type: cell-based, mice
# Experimental: The influence of the peptides of the invention on the proliferation of a mixed lymphocyte culture (MLC) was studied. The MLC experimental system is an in vitro analogue of the GVHD reaction.
# Donor spleen cells from C57B1 mice ([…]) were injected into recipient (CBA×C57B1) F1 mice. Bone marrow was removed from the recipient and cultured for 4 days. The cultured cells were separated into 3 test groups, one group was treated with iDD, one with the L-peptide H-Ile-Glu-Trp-OH and one was a control. Each test peptide was added in various concentrations. Each determination was done in triplicate. ^3H-thymidine was added to each culture for 16 hours and the index of the proliferation of the cells was calculated.
# [6] = test system: patients with cytopenias of immune origin; experiment: Clinical study: tolerability; assay type: in vivo
# Experimental: The peptide iDD was given to patients with cytopenias of immune origin and its effect on hemopoietic status was assessed using a number of immunological tests characterising both humoral and cellular immunity.
# The iDD was administered 0.1 mg in a 1 ml dose intranasally (once or twice in divided doses) for 5 days. The regime was repeated after a two week interval. For patients receiving steroids and cytostatics, iDD was administered during the therapy or before the cytostatic treatment.
# [7] = iDD + iDD: in vitro pretreatment and iDD therapy
# [8] = iDD: transplant treated in vitro only
substance,measurement,setting,value
H-D-iGlu-D-Trp-OH [iDD],Decrease of number of spleen colonies,"[1]; Table 4, in the presence of the peptide",more than 50%
same,Colony count,"[1]; peptide dose 0,1 μg/ml, no thymocytes","4,4 ± 0,5"
same,Colony count,"[1]; peptide dose 0,02 μg/ml, no thymocytes","3,6 ± 0,5"
same,Colony count,"[1]; peptide dose 1,0 μg/ml, no thymocytes","4,3 ± 0,3"
same,Colony count,"[1]; peptide dose 10,0 μg/ml, no thymocytes","4,3 ± 0,1"
same,Colony count,"[1]; peptide dose 10,0 μg/ml, with thymocytes 2 × 10^7 cells","8,7 ± 0,4"
same,Colony count,"[1]; peptide dose 20,0 μg/ml, no thymocytes","3,9 ± 0,4"
same,CFU-S count per femur,[2]; 10 μg/kg IP 1 hour before 4 Gy,394 ± 57
same,CFU-S count per femur,[2]; 10 μg/kg IP 1 day before 4 Gy,324 ± 63
same,CFU-S count per femur,[2]; 10 μg/kg IP 2 days before 4 Gy,677 ± 49
same,Caryocyte count,"[3]; 4 days after irradiation, 4 Gy alone 9,0 ± 0,3","12,8 ± 0,9 × 10^6"
same,Caryocyte count,"[3]; 7 days after irradiation, 4 Gy alone 10,6 ± 0,8","21,3 ± 2,1 × 10^6"
same,Caryocyte count,"[3]; 11 days after irradiation, 4 Gy alone 17,0 ± 0,6","17,3 ± 1,0 × 10^6"
same,Caryocyte count,"[3]; 14 days after irradiation, 4 Gy alone 17,0 ± 1,2","20,5 ± 0,5 × 10^6"
same,Survival rate,"(CBA×C57B1)F1 mice; 21 days, control 80%",100%
same,Weight loss throughout the experiment,"(CBA×C57B1)F1 mice; 21 days, control group weight loss 3 g",practically no weight loss
same,"Splenomegaly suppression, %","(CBA×C57B1)F1 mice; day 21, relative to control",26%
same,Splenomegaly,"(CBA×C57B1)F1 mice; day 21, control 12,6 ± 1,2, intact 3,4 ± 0,3","10,2 ± 1,0 mg spleen per mg body weight"
same,Mice with sharp increase in weight on day 21,"(CBA×C57B1)F1 mice; day 21, control 70%",55%
same,Mouse weight,"(CBA×C57B1)F1 mice; day 0 after the first injection of spleen cells, control 22,3 ± 0,9","22,6 ± 0,7 g"
same,Mouse weight,"(CBA×C57B1)F1 mice; day 7, control 21,7 ± 0,8","25,0 ± 0,6 g"
same,Mouse weight,"(CBA×C57B1)F1 mice; day 14, control 18,3 ± 0,9","23,3 ± 1,0 g"
same,Mouse weight,"(CBA×C57B1)F1 mice; day 21, control 19,3 ± 1,1","22,7 ± 0,9 g"
same,Caryocytes in blood,"[4]; K+ iDD: iDD 10 μg/kg ip, 6 weeks, intact 5,4 + 1,0","3,8 + 0,3 thousand/μl"
same,"Lymphocytes, %","[4]; K+ iDD: iDD 10 μg/kg ip, 6 weeks, intact 43",19%
same,Caryocytes in blood,[4]; [7],"5,2 + 0,6* thousand/μl"
same,"Lymphocytes, %",[4]; [7],40* %
same,Caryocytes in blood,[4]; [8],"4,2 + 0,3 thousand/μl"
same,"Lymphocytes, %",[4]; [8],"21,5%"
same,Increase of lymphocyte count versus control,[4]; schemes K+iDD and iDD,6-7 times
same,Effect on MLC when H-Ile-Glu-Trp-OH and iDD added in equal concentrations,[5]; both peptides in equal concentrations,the effect of iDD was predominant
same,Depression of the proliferation MLC,"[5]; concentrations of 10 and 20 μg/ml, FIG. 1",~50%
same,Dynamics of biochemical indices,[6]; before and after 1-3 treatment courses,no changes
same,Somatic status (physical examinations),[6]; before and after the treatment,no changes
same,Changes in AP dynamics and ECG,[6]; iDD courses,not observed
same,Toxic and adverse reactions,"[6]; prolonged administration (5-6 courses), 0.1 mg intranasally for 5 days",no toxic reactions
